Measurements published in patent US7084152B2, “4-phenyl substituted tetrahydroisoquinolines therapeutic use thereof” (AMR Technology, Inc., priority 2000, dated 2006).
Structures can show the parent of a compound that is named as a salt.

Key:
[1] = system: dopamine transporter protein over the norepinephrine transporter protein; settings: ratio of Ki values; cited from earlier work

SMILES | melting point | DAT/NET Ki ratio [1]
CN1Cc2c(ccc3ccoc23)C(c2ccccc2)C1 (single isomer, unassigned) (as salt: maleate) | 165 to 168 °C | 
Cc1ccc(C2CN(C)Cc3c2ccc2ccoc32)cc1 (single isomer, unassigned) (as salt: maleate) | 190 to 191 °C | 
CN1Cc2c(ccc3ccoc23)C(c2ccc(F)cc2)C1 (stereo not shown) (as salt: hydrochloride) | 242 to 257 °C | 
CN1Cc2c(ccc3ccoc23)C(c2cc(F)cc(F)c2)C1 (stereo not shown) (as salt: hydrochloride) | 233 to 236 °C | 
CN1Cc2c(ccc3ccoc23)C(c2ccccc2)C1 (single isomer, unassigned) | 81 to 83 °C | 
COC(=O)C(c1ccccc1)C1CCCCN1 (stereo not shown) [Methylphenidate, methylphenidate] |  | 0.1
Cc1ccc(C2CN(C)Cc3c2ccc2ccoc32)cc1 (single isomer, unassigned) (as salt: hydrochloride) | 240 to 246 °C | 
